This passage reports maximal fold induction, EC (1.5-fold) and Smn protein expression results from patent US9914722B2, “Compounds for treating spinal muscular atrophy” (PTC Therapeutics Inc., priority 2012, dated 2018).

Where only a bound is given, the exact number is not on record here.

This experiment has as its system Smn protein. Kind of experiment: Smn protein assay (Smn HTRF) in cultured cells. It is filed as cell-based, human. The conditions noted are these: for maximal fold induction / EC (1.5-fold): Homo sapiens, Fibroblast, GM03813 SMA Type 1 patient fibroblasts, 48 hours, HTRF; for maximal fold induction: 7-point concentration data, relative to vehicle, read-out: maximum fold (Fold) increase of Smn protein; for EC (1.5-fold): concentration producing 1.5 times Smn protein vs DMSO vehicle, read-out: EC1.5x for Smn protein expression; for Smn protein expression: SMA Type 1 patient fibroblast cells, 48 hour, SMN HTRF assay, FIG. 6. In a few lines:
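SMA patient fibroblasts (5,000/well) were exposed to a 7-point, 3.16-fold compound dilution series for 48 hours at 37° C, in triplicate. Lysates were read by HTRF with anti-SMN d2/kryptate at 665/620 nm. Blank-corrected signal was expressed as fold over DMSO vehicle, giving the EC1.5x and the maximum fold increase.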
A general note: TR-FRET usually uses a lanthanide donor and a delayed reading to cut background.

For the compound `C[C@@H]1CN(c2ccc3oc(-c4cn5ccccc5n4)cc(=O)c3c2)C[C@H](C)N1` [Cpd 17, 6-[(3R,5S)-3,5-dimethylpiperazin-1-yl]-2-(imidazo[1,2-a]pyridin-2-yl)-4H-chromen-4-one], the maximal fold induction was above 1.65, the EC (1.5-fold) fell in the range of 1 to 3 µM and the Smn protein expression result was “dose dependent increase in Smn protein expression”.

With `COc1ccc(-c2cc(=O)c3cc(N4CCN[C@@H](C)C4)ccc3o2)cc1F` [Cpd 38, 2-(3-fluoro-4-methoxyphenyl)-6-[(3S)-3-methylpiperazin-1-yl]-4H-chromen-4-one], the maximal fold induction was in the range of 1.5 to 1.65, the EC (1.5-fold) lay within 0.3 to 1 µM and the Smn protein expression result was “dose dependent increase in Smn protein expression”.
